Structures can show the parent of a compound that is named as a salt.
System: HepaRG
Test: LDH release cytotoxicity, % of total lysis control; higher = more cytotoxic
Settings: 48 h
How it was run: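 The CytoTox-ONE kit was used to read LDH in 50 µL spent medium as resorufin fluorescence on a Tecan Safire, with 0.1% Triton X added to total lysis wells. Beforehand, single-lot HepaRG cells on collagen I-coated 96-well plates had been exposed in duplicate for 48 h to eight-point half-log series (top 100 µM) in serum-free induction medium containing 0.5% DMSO. Percent cytotoxicity was normalized against on-plate vehicle and total lysis controls and averaged over duplicates.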

CC(=O)OC1(C(C)=O)CCC2C3C=C(Cl)C4=CC(=O)C5CC5C4(C)C3CCC21C (stereo not given) [Cyproterone acetate]
Settings	LDH release cytotoxicity [%]
0.03162 µM	-0.255
0.1 µM	-1.64
0.3162278 µM	-0.773
1 µM	-0.77
3.16228 µM	-0.346
10 µM	0.58
31.6228 µM	10.4
100 µM	46.5

Nc1nc(N)nc(NC2CC2)n1 [Cyromazine]
Settings	LDH release cytotoxicity [%]
0.03162 µM	-1.4
0.1 µM	-0.914
0.3162278 µM	-0.958
1 µM	-1.75
3.16228 µM	-1.74
10 µM	-1.14
31.6228 µM	-1.52
100 µM	0.201

Nc1ccn(C2OC(CO)C(O)C2O)c(=O)n1 (stereo not given) [Cytarabine hydrochloride]
Settings	LDH release cytotoxicity [%]
0.03162 µM	-0.941
0.1 µM	-1.96
0.3162278 µM	-0.891
1 µM	-1.56
3.16228 µM	-0.827
10 µM	0.301
31.6228 µM	1.76
100 µM	4.47

OC[C@@H](O)[C@@H](O)[C@H](O)[C@H](O)CO [D-Mannitol]
Settings	LDH release cytotoxicity [%]
0.031623 µM	-0.135
0.1 µM	-2.88
0.316228 µM	-2.85
1 µM	-2.73
3.16228 µM	-2.39
10 µM	-1.31
31.6228 µM	0.669
100 µM	3.29

CCN(CC)C(=O)c1cccc(C)c1 [DEET]
Settings	LDH release cytotoxicity [%]
0.03305 µM	-1.66
0.1045 µM	-2.06
0.330458 µM	-2.58
1.045 µM	-2.44
3.30458 µM	-2.59
10.45 µM	-2.53
33.0458 µM	-1.85
104.5 µM	-1.16

CC(Cl)(Cl)C(=O)O [Dalapon]
Settings	LDH release cytotoxicity [%]
0.03162 µM	-1.01
0.1 µM	-0.953
0.3162278 µM	-0.84
1 µM	-0.409
3.16228 µM	-0.505
10 µM	0.644
31.6228 µM	1.01
100 µM	0.962

CN(C)NC(=O)CCC(=O)O [Daminozide]
Settings	LDH release cytotoxicity [%]
0.03162 µM	-1.88
0.1 µM	-1.67
0.3162278 µM	-1.27
1 µM	-0.212
3.16228 µM	-1.11
10 µM	-0.0868
31.6228 µM	0.553
100 µM	1.58

Nc1ccc(S(=O)(=O)c2ccc(N)cc2)cc1 [Dapsone]
Settings	LDH release cytotoxicity [%]
0.03162 µM	-1.24
0.1 µM	-0.379
0.3162278 µM	-1.16
1 µM	-0.536
3.16228 µM	0.1
10 µM	-0.392
31.6228 µM	0.105
100 µM	1.63

CC(C)(C)c1cc(C=C2SC(=N)NC2=O)cc(C(C)(C)C)c1O [Darbufelone mesylate]
Settings	LDH release cytotoxicity [%]
0.03162 µM	-2.49
0.1 µM	-3.41
0.3162278 µM	-3.09
1 µM	-3.16
3.16228 µM	-3.23
10 µM	-3.27
31.6228 µM	-2.49
100 µM	-1.56

CN1CSC(=S)N(C)C1 [Dazomet]
Settings	LDH release cytotoxicity [%]
0.03162 µM	-1.04
0.1 µM	-0.753
0.3162278 µM	-1.34
1 µM	-1.86
3.16228 µM	-2.37
10 µM	-3.44
31.6228 µM	13.1
100 µM	78

CCCCCCCCCC [Decane]
Settings	LDH release cytotoxicity [%]
0.031623 µM	-0.647
0.1 µM	-2.33
0.316228 µM	-2.41
1 µM	-2.73
3.16228 µM	-3.64
10 µM	-2.67
31.6228 µM	-1.91
100 µM	0.361

CCCCCCCCCC(=O)O [Decanoic acid]
Settings	LDH release cytotoxicity [%]
0.03162 µM	-1.36
0.1 µM	-2.46
0.3162278 µM	-1.69
1 µM	-1.7
3.16228 µM	-1.42
10 µM	-1.16
31.6228 µM	-0.917
100 µM	-0.408

CCNc1nc(N)nc(Cl)n1 [Deisopropylatrazine]
Settings	LDH release cytotoxicity [%]
0.03162 µM	-0.429
0.1 µM	-1.18
0.3162278 µM	-0.471
1 µM	-1.46
3.16228 µM	-0.314
10 µM	-0.765
31.6228 µM	-0.375
100 µM	0.373

CC1CC2C3CCC4=CC(=O)C=CC4(C)C3(F)C(O)CC2(C)C1(O)C(=O)COP(=O)(O)O (stereo not given) [Dexamethasone sodium phosphate]
Settings	LDH release cytotoxicity [%]
0.03162 µM	-1.41
0.1 µM	-1.19
0.3162278 µM	-0.881
1 µM	-1.653
3.16228 µM	-1.03
10 µM	-1.06
31.6228 µM	-0.535
100 µM	-0.295

CCCCC(CC)COC(=O)c1ccccc1C(=O)OCC(CC)CCCC (stereo not given) [Di(2-ethylhexyl) phthalate]
Settings	LDH release cytotoxicity [%]
0.01581 µM	-1.27
0.05 µM	-1.74
0.1581139 µM	-1.47
0.5 µM	-0.91
1.5811388 µM	-1.48
5 µM	-1.76
15.8114 µM	-0.407
50 µM	-0.778

CC(COCC(C)OC(=O)c1ccccc1)OC(=O)c1ccccc1 (stereo not given) [Di(propylene glycol) dibenzoate]
Settings	LDH release cytotoxicity [%]
0.03162 µM	-0.851
0.1 µM	-1.49
0.3162278 µM	-1.08
1 µM	-1.01
3.16228 µM	-1.58
10 µM	-1.58
31.6228 µM	-1.03
100 µM	0.42

CCCCCCCCOC(=O)c1ccccc1C(=O)OCCCCCCCC [Di-n-octyl phthalate]
Settings	LDH release cytotoxicity [%]
0.03162 µM	-0.293
0.1 µM	-1.33
0.3162278 µM	-0.746
1 µM	-0.29
3.16228 µM	-1.1
10 µM	-0.705
31.6228 µM	-0.176
100 µM	5.1

CC(C)(C)OOC(C)(C)C [Di-tert-butyl peroxide]
Settings	LDH release cytotoxicity [%]
0.01581 µM	-1.21
0.05 µM	-2.14
0.1581139 µM	-1.99
0.5 µM	-2.18
1.5811388 µM	-1.46
5 µM	-1.68
15.8114 µM	-1.75
50 µM	-1.55

CC(=O)CC(C)(C)O [Diacetone alcohol]
Settings	LDH release cytotoxicity [%]
0.016602 µM	-0.631
0.0525 µM	0.0827
0.16602 µM	-0.266
0.525 µM	0.0034
1.660196 µM	-0.934
5.25 µM	-1.02
16.602 µM	-0.505
52.5 µM	-2.05

C=CCOC(=O)c1ccccc1C(=O)OCC=C [Diallyl phthalate]
Settings	LDH release cytotoxicity [%]
0.03162 µM	0.139
0.1 µM	0.0319
0.3162278 µM	-0.423
1 µM	-0.76
3.16228 µM	-0.551
10 µM	0.184
31.6228 µM	-0.538
100 µM	0.377

CCOP(=S)(OCC)Oc1cc(C)nc(C(C)C)n1 [Diazinon]
Settings	LDH release cytotoxicity [%]
0.03162 µM	-0.351
0.1 µM	-0.469
0.3162278 µM	-1.1
1 µM	-1.24
3.16228 µM	0.347
10 µM	-0.4
31.6228 µM	-0.512
100 µM	0.528

CCOP(=O)(OCC)Oc1cc(C)nc(C(C)C)n1 [Diazoxon]
Settings	LDH release cytotoxicity [%]
0.03162 µM	-0.61
0.1 µM	-1.35
0.3162278 µM	-0.708
1 µM	-1.37
3.16228 µM	-1.41
10 µM	-0.802
31.6228 µM	-0.357
100 µM	1.03

c1ccc2c(c1)oc1ccccc12 [Dibenzofuran]
Settings	LDH release cytotoxicity [%]
0.03162 µM	-0.992
0.1 µM	-1.07
0.3162278 µM	-1.34
1 µM	-1.2
3.16228 µM	-1.19
10 µM	-0.829
31.6228 µM	-0.8185
100 µM	1.45

N#CC(Br)Br [Dibromoacetonitrile]
Settings	LDH release cytotoxicity [%]
0.03162 µM	-2.24
0.1 µM	-3.22
0.3162278 µM	-2.74
1 µM	-2.98
3.16228 µM	-2.65
10 µM	-2.89
31.6228 µM	-2.1
100 µM	-0.937

CCCCOC(=O)CCCCC(=O)OCCCC [Dibutyl adipate]
Settings	LDH release cytotoxicity [%]
0.0317809 µM	-0.761
0.1005 µM	-1.45
0.317809 µM	-1.74
1.005 µM	-1.12
3.17809 µM	-1.24
10.05 µM	-0.568
31.7809 µM	0.579
100.5 µM	2.35

CCCCOC(=O)CCCCCCCCC(=O)OCCCC [Dibutyl decanedioate]
Settings	LDH release cytotoxicity [%]
0.03162 µM	-1.01
0.1 µM	-1.61
0.3162278 µM	-1.81
1 µM	-2.3
3.16228 µM	-2.91
10 µM	-1.92
31.6228 µM	-1.43
100 µM	0.112

CCCCOC(=O)c1ccccc1C(=O)OCCCC [Dibutyl phthalate]
Settings	LDH release cytotoxicity [%]
0.03162 µM	6.54
0.1 µM	3.46
0.3162278 µM	3.28
1 µM	4.3
3.16228 µM	4.61
10 µM	4.63
31.6228 µM	6.08
100 µM	9.42

COc1c(Cl)ccc(Cl)c1C(=O)O [Dicamba]
Settings	LDH release cytotoxicity [%]
0.03162 µM	-2.43
0.1 µM	-1.52
0.3162278 µM	-0.804
1 µM	-2.09
3.16228 µM	-0.996
10 µM	-0.906
31.6228 µM	-0.688
100 µM	0.691

N#Cc1c(Cl)cccc1Cl [Dichlobenil]
Settings	LDH release cytotoxicity [%]
0.03162 µM	0.00697
0.1 µM	-0.347
0.3162278 µM	-1.05
1 µM	-1.65
3.16228 µM	0.43
10 µM	0.582
31.6228 µM	1.87
100 µM	1.99

O=C(O)C(Cl)Cl [Dichloroacetic acid]
Settings	LDH release cytotoxicity [%]
0.03162 µM	-1.93
0.1 µM	-1.93
0.3162278 µM	-1.5
1 µM	-2.38
3.16228 µM	-2.6
10 µM	-1.71
31.6228 µM	-2.34
100 µM	0.0869

— the supplement of paper PMC7840683
